≈ marks a conversion by molar mass, not a printed value. Like-named read-outs stand apart in the source and are kept apart here.
Key:
Test in all cases: MIC, broth microdilution
[1] = tested on: S. aureus GC 6335; conditions: Staphylococcus aureus
[2] = tested on: S. agalactiae GC 4564; conditions: Streptococcus agalactiae
[3] = tested on: E. coli GC 2270; conditions: Escherichia coli
[4] = tested on: S. aureus GC 1079; conditions: Staphylococcus aureus
[5] = tested on: E. coli GC 4560; conditions: Escherichia coli
[6] = tested on: E. faecium GC 4556; conditions: Enterococcus faecium
[7] = tested on: S. aureus GC 6467; conditions: Staphylococcus aureus
[8] = tested on: E. coli GC 2203; conditions: Escherichia coli
[9] = tested on: E. coli GC 6465; conditions: Escherichia coli
[10] = tested on: E. coli GC 2271; conditions: Escherichia coli
[11] = tested on: E. coli GC 4559; conditions: Escherichia coli
[12] = tested on: S. typhimurium GC 2172; conditions: Salmonella enterica, TYPHIMURIUM
[13] = tested on: S. aureus GC 6469; conditions: Staphylococcus aureus
[14] = tested on: S. pyogenes GC 4563; conditions: Streptococcus pyogenes
Protocol: Antimicrobial susceptibility testing. The in vitro activities of the antibiotics are determined by the broth microdilution method as recommended by the National Committee for Clinical Laboratory Standards (NCCLS) (1). Mueller-Hinton II broth (MHBII)(BBL Cockeysville, Md.) is the medium employed in the testing procedures. Microtiter plates containing serial dilutions of each antimicrobial agent are inoculated with each organism to yield the appropriate density (10^5 CFU/ml) in a 100 μl final volume. The plates are incubated for 18-22 hours at 35° C. in ambient air. […] Standard Pharmacological Test Procedures
Presented in Tables I-XIII are representative compounds of Formula I which were evaluated against a panel of 40 selected gram-positive and gram-negative bacteria strains by pre-incubation in water, mouse serum or human serum. Representative compounds were first incubated in mouse serum for an hour prior to the in vitro testing against a panel of selected gram-positive and gram-negative bacteria strains. All compounds were also pre-incubated in water for an hour prior to testing as control. Representative compounds of Formula I were incubated in human serum prior to MIC determination.

[15] = tested on: E. coli GC 1073; conditions: Escherichia coli
[16] = tested on: E. coli GC 2234; conditions: Escherichia coli
[17] = tested on: E. coli GC 3226; conditions: Escherichia coli
[18] = tested on: E. coli GC 2235; conditions: Escherichia coli
[19] = tested on: E. coli GC 2233; conditions: Escherichia coli
[20] = tested on: S. aureus GC 6466; conditions: Staphylococcus aureus

CN(C)c1cc(NC(=O)CN(C(=O)OCOC(=O)c2ccc(F)cc2)C(C)(C)C)c(O)c2c1C[C@H]1C[C@H]3[C@H](N(C)C)C(O)=C(C(N)=O)C(=O)[C@@]3(O)C(O)=C1C2=O [Example 52, ({[(2-{[(5aR,6aS,7S,10aS)-9-(aminocarbonyl)-4,7-bis(dimethylamino)-1,8,10a,11-tetrahydroxy-10,12-dioxo-5,5a,6,6a,7,10,10a,12-octahydrotetracen-2-yl]amino}-2-oxoethyl)(tert-butyl)amino]carbonyl}oxy)methyl 4-fluorobenzoate]
MIC ([1]; GC6335, read-out: MINIMAL INHIBITORY CONCENTRATION MIC, Human Serum): 2 µg/mL (≈ 2.56 µM) | MIC ([1]; GC6335, read-out: MINIMAL INHIBITORY CONCENTRATION MIC, Mouse Serum): 1 µg/mL (≈ 1.28 µM) | MIC ([1]; GC6335, read-out: MINIMAL INHIBITORY CONCENTRATION MIC, Water): 4 µg/mL (≈ 5.12 µM) | MIC ([2]; GC4564, read-out: MINIMAL INHIBITORY CONCENTRATION MIC, Human Serum): 0.5 µg/mL (≈ 0.64 µM) | MIC ([2]; GC4564, read-out: MINIMAL INHIBITORY CONCENTRATION MIC, Mouse Serum): 0.12 µg/mL (≈ 0.153 µM) | MIC ([2]; GC4564, read-out: MINIMAL INHIBITORY CONCENTRATION MIC, Water): 0.5 µg/mL (≈ 0.64 µM) | MIC ([3]; GC2270, read-out: MINIMAL INHIBITORY CONCENTRATION MIC, Human Serum): 4 µg/mL (≈ 5.12 µM) | MIC ([3]; GC2270, read-out: MINIMAL INHIBITORY CONCENTRATION MIC, Mouse Serum): 0.5 µg/mL (≈ 0.64 µM) | MIC ([3]; GC2270, read-out: MINIMAL INHIBITORY CONCENTRATION MIC, Water): 4 µg/mL (≈ 5.12 µM) | MIC ([4]; GC1079, read-out: MINIMAL INHIBITORY CONCENTRATION MIC, Human Serum): 1 µg/mL (≈ 1.28 µM) | MIC ([4]; GC1079, read-out: MINIMAL INHIBITORY CONCENTRATION MIC, Mouse Serum): 0.5 µg/mL (≈ 0.64 µM) | MIC ([4]; GC1079, read-out: MINIMAL INHIBITORY CONCENTRATION MIC, Water): 2 µg/mL (≈ 2.56 µM) | MIC ([5]; GC4560, read-out: MINIMAL INHIBITORY CONCENTRATION MIC, Human Serum): 2 µg/mL (≈ 2.56 µM) | MIC ([5]; GC4560, read-out: MINIMAL INHIBITORY CONCENTRATION MIC, Mouse Serum): 0.25 µg/mL (≈ 0.32 µM) | MIC ([5]; GC4560, read-out: MINIMAL INHIBITORY CONCENTRATION MIC, Water): 2 µg/mL (≈ 2.56 µM) | MIC ([6]; GC4556, read-out: MINIMAL INHIBITORY CONCENTRATION MIC, Human Serum): 2 µg/mL (≈ 2.56 µM) | MIC ([6]; GC4556, read-out: MINIMAL INHIBITORY CONCENTRATION MIC, Mouse Serum): 0.5 µg/mL (≈ 0.64 µM) | MIC ([6]; GC4556, read-out: MINIMAL INHIBITORY CONCENTRATION MIC, Water): 4 µg/mL (≈ 5.12 µM) | MIC ([7]; GC6467, read-out: MINIMAL INHIBITORY CONCENTRATION MIC, Human Serum): 4 µg/mL (≈ 5.12 µM) | MIC ([7]; GC6467, read-out: MINIMAL INHIBITORY CONCENTRATION MIC, Mouse Serum): 0.5 µg/mL (≈ 0.64 µM) | MIC ([7]; GC6467, read-out: MINIMAL INHIBITORY CONCENTRATION MIC, Water): 4 µg/mL (≈ 5.12 µM) | MIC ([8]; GC2203, read-out: MINIMAL INHIBITORY CONCENTRATION MIC, Human Serum): 8 µg/mL (≈ 10.2 µM) | MIC ([8]; GC2203, read-out: MINIMAL INHIBITORY CONCENTRATION MIC, Mouse Serum): 0.5 µg/mL (≈ 0.64 µM) | MIC ([8]; GC2203, read-out: MINIMAL INHIBITORY CONCENTRATION MIC, Water): 8 µg/mL (≈ 10.2 µM) | MIC ([9]; GC6465, read-out: MINIMAL INHIBITORY CONCENTRATION MIC, Human Serum): 16 µg/mL (≈ 20.5 µM) | MIC ([9]; GC6465, read-out: MINIMAL INHIBITORY CONCENTRATION MIC, Mouse Serum): 2 µg/mL (≈ 2.56 µM) | MIC ([9]; GC6465, read-out: MINIMAL INHIBITORY CONCENTRATION MIC, Water): 64 µg/mL (≈ 81.9 µM) | MIC ([10]; GC2271, read-out: MINIMAL INHIBITORY CONCENTRATION MIC, Human Serum): 4 µg/mL (≈ 5.12 µM) | MIC ([10]; GC2271, read-out: MINIMAL INHIBITORY CONCENTRATION MIC, Mouse Serum): 0.5 µg/mL (≈ 0.64 µM) | MIC ([10]; GC2271, read-out: MINIMAL INHIBITORY CONCENTRATION MIC, Water): 4 µg/mL (≈ 5.12 µM) | MIC ([11]; GC4559, read-out: MINIMAL INHIBITORY CONCENTRATION MIC, Human Serum): 8 µg/mL (≈ 10.2 µM) | MIC ([11]; GC4559, read-out: MINIMAL INHIBITORY CONCENTRATION MIC, Mouse Serum): 1 µg/mL (≈ 1.28 µM) | MIC ([11]; GC4559, read-out: MINIMAL INHIBITORY CONCENTRATION MIC, Water): 8 µg/mL (≈ 10.2 µM) | MIC ([12]; read-out: MINIMAL INHIBITORY CONCENTRATION MIC, Human Serum): 64 µg/mL (≈ 81.9 µM) | MIC ([12]; read-out: MINIMAL INHIBITORY CONCENTRATION MIC, Mouse Serum): 4 µg/mL (≈ 5.12 µM) | MIC ([12]; read-out: MINIMAL INHIBITORY CONCENTRATION MIC, Water): 64 µg/mL (≈ 81.9 µM) | MIC ([13]; GC6469, read-out: MINIMAL INHIBITORY CONCENTRATION MIC, Human Serum): 2 µg/mL (≈ 2.56 µM) | MIC ([13]; GC6469, read-out: MINIMAL INHIBITORY CONCENTRATION MIC, Mouse Serum): 0.5 µg/mL (≈ 0.64 µM) | MIC ([13]; GC6469, read-out: MINIMAL INHIBITORY CONCENTRATION MIC, Water): 4 µg/mL (≈ 5.12 µM) | MIC ([14]; GC4563, read-out: MINIMAL INHIBITORY CONCENTRATION MIC, Human Serum): 0.25 µg/mL (≈ 0.32 µM) | MIC ([14]; GC4563, read-out: MINIMAL INHIBITORY CONCENTRATION MIC, Mouse Serum): 0.12 µg/mL (≈ 0.153 µM) | MIC ([14]; GC4563, read-out: MINIMAL INHIBITORY CONCENTRATION MIC, Water): 0.25 µg/mL (≈ 0.32 µM) | MIC ([15]; GC1073, read-out: MINIMAL INHIBITORY CONCENTRATION MIC, Human Serum): 8 µg/mL (≈ 10.2 µM) | MIC ([15]; GC1073, read-out: MINIMAL INHIBITORY CONCENTRATION MIC, Mouse Serum): 1 µg/mL (≈ 1.28 µM) | MIC ([15]; GC1073, read-out: MINIMAL INHIBITORY CONCENTRATION MIC, Water): 4 µg/mL (≈ 5.12 µM) | MIC ([16]; GC2234, read-out: MINIMAL INHIBITORY CONCENTRATION MIC, Human Serum): 4 µg/mL (≈ 5.12 µM) | MIC ([16]; GC2234, read-out: MINIMAL INHIBITORY CONCENTRATION MIC, Mouse Serum): 0.5 µg/mL (≈ 0.64 µM) | MIC ([16]; GC2234, read-out: MINIMAL INHIBITORY CONCENTRATION MIC, Water): 8 µg/mL (≈ 10.2 µM) | MIC ([17]; GC3226, read-out: MINIMAL INHIBITORY CONCENTRATION MIC, Human Serum): 16 µg/mL (≈ 20.5 µM) | MIC ([17]; GC3226, read-out: MINIMAL INHIBITORY CONCENTRATION MIC, Mouse Serum): 1 µg/mL (≈ 1.28 µM) | MIC ([17]; GC3226, read-out: MINIMAL INHIBITORY CONCENTRATION MIC, Water): 16 µg/mL (≈ 20.5 µM) | MIC ([18]; GC2235, read-out: MINIMAL INHIBITORY CONCENTRATION MIC, Human Serum): 4 µg/mL (≈ 5.12 µM) | MIC ([18]; GC2235, read-out: MINIMAL INHIBITORY CONCENTRATION MIC, Mouse Serum): 0.5 µg/mL (≈ 0.64 µM) | MIC ([18]; GC2235, read-out: MINIMAL INHIBITORY CONCENTRATION MIC, Water): 4 µg/mL (≈ 5.12 µM) | MIC ([19]; GC2233, read-out: MINIMAL INHIBITORY CONCENTRATION MIC, Human Serum): 8 µg/mL (≈ 10.2 µM) | MIC ([19]; GC2233, read-out: MINIMAL INHIBITORY CONCENTRATION MIC, Mouse Serum): 0.5 µg/mL (≈ 0.64 µM) | MIC ([19]; GC2233, read-out: MINIMAL INHIBITORY CONCENTRATION MIC, Water): 8 µg/mL (≈ 10.2 µM) | MIC ([20]; GC6466, read-out: MINIMAL INHIBITORY CONCENTRATION MIC, Human Serum): 1 µg/mL (≈ 1.28 µM) | MIC ([20]; GC6466, read-out: MINIMAL INHIBITORY CONCENTRATION MIC, Mouse Serum): 0.5 µg/mL (≈ 0.64 µM) | MIC ([20]; GC6466, read-out: MINIMAL INHIBITORY CONCENTRATION MIC, Water): 2 µg/mL (≈ 2.56 µM)

Reference: patent US20070049564A1 (Wyeth, priority 2005, published 2007)
